From US20230049952A1, “METHODS AND COMPOUNDS FOR RESTORING MUTANT P53 FUNCTION” (PMV Pharmaceuticals, Inc., priority 2020, published 2023)
Values joined by “and” are separate entries in the source; they are usually repeats but may differ in a detail not shown here. Equal values may be shown once.

Legend:
CYP2C9 = CYP2C9 (Homo sapiens, UniProt P11712); assay: in vitro; settings: both, microsomes, pH 7.4, % of Control Enzyme Activity
NUGC-3_KO_p53i = assay: p53 pathway gene profiling, doxycycline-induced WT p53; format: cell-based, human; settings: doxycycline 50 ng/ml
CYP2B6 = assay: CYP induction in human hepatocytes (mRNA and enzyme activity); settings: for % Induction Relative to Positive Control / Fold-Change: CYP2B6 enzyme activity, control article
[1] = n=3, * basal expression level is low

Sequence of CYP2C9 (P11712 whole entry): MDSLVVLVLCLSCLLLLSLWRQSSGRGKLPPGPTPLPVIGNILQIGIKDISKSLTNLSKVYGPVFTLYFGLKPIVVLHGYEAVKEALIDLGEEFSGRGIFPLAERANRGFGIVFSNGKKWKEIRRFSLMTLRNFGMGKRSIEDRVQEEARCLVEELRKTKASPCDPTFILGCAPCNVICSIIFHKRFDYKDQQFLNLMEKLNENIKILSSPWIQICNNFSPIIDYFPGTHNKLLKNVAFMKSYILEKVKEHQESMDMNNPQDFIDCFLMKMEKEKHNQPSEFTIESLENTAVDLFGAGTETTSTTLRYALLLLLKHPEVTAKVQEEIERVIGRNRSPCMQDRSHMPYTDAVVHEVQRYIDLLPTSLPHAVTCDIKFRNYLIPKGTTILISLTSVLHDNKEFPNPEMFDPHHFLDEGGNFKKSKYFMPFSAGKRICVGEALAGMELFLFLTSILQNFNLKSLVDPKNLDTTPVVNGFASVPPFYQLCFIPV

Work on `O=C(O)COc1ccc(C(=O)c2cccs2)c(Cl)c1Cl` [Tienilic acid] yielded an activity at 20 min, 0.123 µM (CYP2C9) of 96.5%, an activity at 20 min, 0.37 µM (CYP2C9) of 80.1% and an activity at 20 min, 3.33 µM (CYP2C9) of 32.8%. For the same compound, the activity at 20 min, 30 µM (CYP2C9) was 8.14%, the activity at 20 min, […] (CYP2C9) was 101% and 57.4% and the activity at 30 min, 0.123 µM (CYP2C9) was 74.4%. The activity at 30 min, 0.37 µM (CYP2C9) was 36.8%, the activity at 30 min, 3.33 µM (CYP2C9) was 9.24% and the activity at 30 min, 30 µM (CYP2C9) was 3.84%.

With `C[C@H]1c2cccc(O)c2C(=O)C2=C(O)[C@]3(O)C(=O)C(C(N)=O)=C(O)[C@@H](N(C)C)[C@@H]3[C@@H](O)[C@@H]21` [Doxycycline] the APAF1 fold change (NUGC-3_KO_p53i; n=3) was 2.40 ± 0.16 fold, the BAX fold change (NUGC-3_KO_p53i; n=3) was 2.85 ± 0.08 fold and the BBC3 fold change (NUGC-3_KO_p53i; n=3) was 2.46 ± 0.06 fold. The BIRC5 fold change (NUGC-3_KO_p53i; n=3) was 0.52 ± 0.03 fold, the BRCA1 fold change (NUGC-3_KO_p53i; n=3) was 0.67 ± 0.03 fold and the BRCA2 fold change (NUGC-3_KO_p53i; n=3) was 0.74 ± 0.02 fold. The CCNB1 fold change (NUGC-3_KO_p53i; n=3) was 0.57 ± 0.01 fold, the “CCNE 1 fold change” value (NUGC-3_KO_p53i; n=3) was 0.70 ± 0.01 fold and the “CCNG 1 fold change” value (NUGC-3_KO_p53i; n=3) was 1.65 ± 0.05 fold. The CDC25A fold change (NUGC-3_KO_p53i; n=3) was 0.61 ± 0.04 fold, the CDC25C fold change (NUGC-3_KO_p53i; n=3) was 0.58 ± 0.02 fold and the CDK1 fold change (NUGC-3_KO_p53i; n=3) was 0.71 ± 0.01 fold. For the same compound, the CDKN1A fold change (NUGC-3_KO_p53i; n=3) was 37.37 ± 0.55 fold, the CHEK1 fold change (NUGC-3_KO_p53i; n=3) was 0.71 ± 0.02 fold and the CHEK2 fold change (NUGC-3_KO_p53i; n=3) was 0.74 ± 0.01 fold. It also gave a DNMT1 fold change (NUGC-3_KO_p53i; n=3) of 0.78 ± 0.03 fold, an E2F1 fold change (NUGC-3_KO_p53i; n=3) of 0.63 ± 0.02 fold and an FAS fold change (NUGC-3_KO_p53i; n=3) of 7.34 ± 0.04 fold. For the same compound, the GADD45A fold change (NUGC-3_KO_p53i; n=3) was 3.68 ± 0.20 fold, the MDM2 fold change (NUGC-3_KO_p53i; n=3) was 12.97 ± 0.29 fold and the MSH2 fold change (NUGC-3_KO_p53i; n=3) was 0.70 ± 0.02 fold. It also gave a PIDD1 fold change (NUGC-3_KO_p53i; n=3) of 2.75 ± 0.05 fold, a PPM1D fold change (NUGC-3_KO_p53i; n=3) of 2.21 ± 0.10 fold and a PRC1 fold change (NUGC-3_KO_p53i; n=3) of 0.64 ± 0.01 fold. The SESN2 fold change (NUGC-3_KO_p53i; n=3) was 2.50 ± 0.12 fold, the TNFRSF10B fold change (NUGC-3_KO_p53i; n=3) was 1.88 ± 0.04 fold and the TNFRSF10D fold change (NUGC-3_KO_p53i; n=3) was 2.73 ± 0.04 fold. The TP53 fold change (NUGC-3_KO_p53i; n=3) was 25.95 ± 0.84 fold, the “BTG2* fold change” value (NUGC-3_KO_p53i; [1]) was 27.82 ± 2.42 fold and the “EGR1* fold change” value (NUGC-3_KO_p53i; [1]) was 4.40 ± 0.50 fold. The “IL6* fold change” value (NUGC-3_KO_p53i; [1]) was 1.23 ± 0.01 fold.

In the case of `CCC1(c2ccccc2)C(=O)NC(=O)NC1=O` [PB, phenobarbital], the “% Induction Relative to Positive Control” value (CYP2B6; Donor 1) was 100%, the Fold-Change (CYP2B6; Donor 1) was 6.84 and the “% Induction Relative to Positive Control” value (CYP2B6; Donor 2) was 100%. The Fold-Change (CYP2B6; Donor 2) was 8.56, the “% Induction Relative to Positive Control” value (CYP2B6; Donor 3) was 100% and the Fold-Change (CYP2B6; Donor 3) was 3.36. For the same compound, the “CYP2B6 mRNA % Induction Relative to Positive Control” value (CYP2B6; Donor 1, 1000 μM) was 100%, the “CYP2B6 mRNA Fold Change (n = 3) Mean” value (CYP2B6; Donor 1, 1000 μM) was 24.4 and the “CYP2B6 mRNA % Induction Relative to Positive Control” value (CYP2B6; Donor 2, 1000 μM) was 100%. For the same compound, the “CYP2B6 mRNA Fold Change (n = 3) Mean” value (CYP2B6; Donor 2, 1000 μM) was 793, the “CYP2B6 mRNA % Induction Relative to Positive Control” value (CYP2B6; Donor 3, 1000 μM) was 100% and the “CYP2B6 mRNA Fold Change (n = 3) Mean” value (CYP2B6; Donor 3, 1000 μM) was 6.85. For the same compound, the “CYP2B6 mRNA fold increase (positive control)” value (CYP2B6; donor 2, positive control) was 793 fold.
